Assay results published in ChEMBL document CHEMBL4814078, “Novel CFTR Modulators for Treating Cystic Fibrosis” (ACS Med Chem Lett, 2021).
pEC50: −log10 of the molar value.

target: Cystic fibrosis transmembrane conductance regulator (Homo sapiens, UniProt P13569); assay: Potentiation of CFTR in primary human epithelial enteroid cells assessed as chloride transport in presence of forskolin by measuring membrane potential incubated for 18 to 24 hrs by FLIPR Tetra based dye assay; assay type: tissue-based, Epithelial cell
Sequence (P13569 whole entry): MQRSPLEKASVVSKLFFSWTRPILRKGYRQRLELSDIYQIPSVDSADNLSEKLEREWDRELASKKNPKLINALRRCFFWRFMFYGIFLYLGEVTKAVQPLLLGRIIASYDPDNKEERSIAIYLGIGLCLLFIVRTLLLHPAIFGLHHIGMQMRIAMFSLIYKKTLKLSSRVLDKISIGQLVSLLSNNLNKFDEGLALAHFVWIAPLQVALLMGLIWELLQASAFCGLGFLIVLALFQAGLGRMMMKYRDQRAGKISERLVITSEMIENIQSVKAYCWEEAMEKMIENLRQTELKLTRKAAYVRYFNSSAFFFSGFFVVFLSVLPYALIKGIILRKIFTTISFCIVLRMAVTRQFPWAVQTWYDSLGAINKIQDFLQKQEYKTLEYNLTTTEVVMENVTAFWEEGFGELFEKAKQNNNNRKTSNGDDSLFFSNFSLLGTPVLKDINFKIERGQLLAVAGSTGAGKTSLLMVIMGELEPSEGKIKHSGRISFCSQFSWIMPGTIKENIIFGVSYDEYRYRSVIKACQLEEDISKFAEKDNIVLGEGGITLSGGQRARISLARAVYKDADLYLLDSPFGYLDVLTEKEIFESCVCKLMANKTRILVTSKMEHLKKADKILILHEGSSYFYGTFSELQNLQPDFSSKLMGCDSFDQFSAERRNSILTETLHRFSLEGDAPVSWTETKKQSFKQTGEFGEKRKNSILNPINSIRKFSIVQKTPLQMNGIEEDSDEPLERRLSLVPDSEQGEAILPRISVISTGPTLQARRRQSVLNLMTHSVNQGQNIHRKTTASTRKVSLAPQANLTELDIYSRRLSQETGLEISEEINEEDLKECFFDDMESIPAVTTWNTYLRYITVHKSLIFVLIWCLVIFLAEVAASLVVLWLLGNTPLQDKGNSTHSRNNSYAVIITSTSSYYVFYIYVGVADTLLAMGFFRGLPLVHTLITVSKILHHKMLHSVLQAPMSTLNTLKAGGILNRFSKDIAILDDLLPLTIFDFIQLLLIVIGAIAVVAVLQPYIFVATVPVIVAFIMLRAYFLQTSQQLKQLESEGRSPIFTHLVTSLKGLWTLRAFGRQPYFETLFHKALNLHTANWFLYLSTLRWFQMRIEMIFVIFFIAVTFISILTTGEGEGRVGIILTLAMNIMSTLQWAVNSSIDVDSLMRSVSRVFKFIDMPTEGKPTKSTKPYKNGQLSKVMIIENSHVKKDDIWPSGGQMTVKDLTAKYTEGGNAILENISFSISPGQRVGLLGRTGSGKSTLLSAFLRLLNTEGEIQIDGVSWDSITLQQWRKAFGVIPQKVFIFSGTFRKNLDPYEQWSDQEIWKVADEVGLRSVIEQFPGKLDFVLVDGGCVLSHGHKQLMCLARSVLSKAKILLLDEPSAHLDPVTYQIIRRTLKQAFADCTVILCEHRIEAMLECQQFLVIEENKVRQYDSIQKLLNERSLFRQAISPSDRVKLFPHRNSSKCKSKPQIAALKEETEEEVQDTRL

| Structure (SMILES) | pEC50 |
| --- | --- |
| CC1(C)C[C@@H]2CCCNc3cccc(n3)S(=O)(=O)NC(=O)c3ccc(-n4ccc(OC[Si](C)(C)C)n4)nc3N1C2 | > 6.00 |
| CC1(C)C[C@@H]2CCCNc3cccc(n3)S(=O)(=O)NC(=O)c3ccc(-n4ccc(OCCC[Si](C)(C)C)n4)nc3N1C2 | > 6.00 |
| CC(C)(C)CC[Si](C)(C)c1ccn(-c2ccc3c(n2)N2C[C@@H](CCCNc4cccc(n4)S(=O)(=O)NC3=O)CC2(C)C)n1 | > 6.00 |
| CC1(C)C[C@@H]2CCCNc3cccc(n3)S(=O)(=O)NC(=O)c3ccc(-n4ccc(OC[Si](C)(C)C5(C(F)(F)F)CC5)n4)nc3N1C2 | > 6.00 |
| CC1(C)C[C@@H]2CCCNc3cccc(n3)S(=O)(=O)NC(=O)c3ccc(-n4ccc(OCC[Si](C)(C)C)n4)nc3N1C2 | > 6.00 |
| CC1(C)C[C@@H]2CCCNc3cccc(n3)S(=O)(=O)NC(=O)c3ccc(-n4ccc(OCCC5([Si](C)(C)C)CC5)n4)nc3N1C2 | > 6.00 |
